Experimental findings from ChEMBL document CHEMBL1201862, “PubChem BioAssay data set” (2004) are described below.

Among the test systems are 786-0; HCC 2998; HCT-116; HOP-92; Hs-578T; MCF7; MDA-MB-435; MDA-N; MOLT-4; NCI-H226; OVCAR-5; OVCAR-8; RXF 393; SF-539; SN12C; SNB-19; TK-10; U-251; UACC-62; HL-60.
What all share (test): DTP human tumour cell line panel, 48 h

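Results reflect a 48-hour exposure of cells in 96-well plates to compound at five concentrations. Abbreviation: GI50, concentration required for 50% inhibition of growth.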 The source made the active and inactive calls. No stated cut-off is given here; in the data, active = GI50 up to about 1.1 µM and inactive = higher. A value given as a limit tells only on which side of the number the result lay.

`S=C1c2cc(Cl)ccc2N=C(NC2CCCC2)C2CSCN12` (stereo not drawn): the GI50 was > 100 µM (inactive) with 786-0; > 100 µM (inactive) in the test with HCC 2998; > 74.5 µM (inactive) in the test with HCT-116; 60.5 µM (inactive) with HOP-92; > 96.6 µM (inactive) in the test on Hs-578T; > 71.4 µM (inactive) in the test on MCF7. Further, the GI50 with MDA-MB-435 was > 91.8 µM (inactive); with MDA-N, 97.3 µM (inactive); in the test with MOLT-4, > 57.7 µM (inactive); in the test on NCI-H226, > 100 µM (inactive); in the test with OVCAR-5, > 100 µM (inactive); with OVCAR-8 it was > 100 µM (inactive). In addition, the GI50 was > 69.7 µM (inactive) in the test with RXF 393; 89.9 µM (inactive) in the test on SF-539; > 100 µM (inactive) with SN12C; > 100 µM (inactive) in the test with SNB-19; > 100 µM (inactive) in the test on TK-10; > 100 µM (inactive) in the test with U-251. Further, the GI50 in the test with UACC-62 is > 92.9 µM (inactive).

Regarding `COC1(c2ccccc2)N=C(S)NN=C1c1ccccc1` (stereo not drawn), the GI50 was 41.7 µM (inactive) with 786-0; 19.2 µM (inactive) in the test on HCC 2998; 35.5 µM (inactive) in the test with HCT-116; 21 µM (inactive) with HL-60; > 100 µM (inactive) with HOP-92; 42.4 µM (inactive) in the test on Hs-578T. For the same molecule, the GI50 in the test with MCF7 is 38 µM (inactive); in the test with MDA-MB-435, 19.5 µM (inactive); in the test on MDA-N, 21.5 µM (inactive); in the test on MOLT-4, 35.4 µM (inactive); with OVCAR-5, 78.2 µM (inactive); in the test with OVCAR-8 it was 29.3 µM (inactive). The GI50 with RXF 393 was 63.4 µM (inactive); in the test with SN12C, 21 µM (inactive); in the test with SNB-19, 54.2 µM (inactive); with TK-10 it was 48.2 µM (inactive); in the test on U-251 it was 21.2 µM (inactive); in the test with UACC-62 it was 51.4 µM (inactive).

Take `COc1cccc2nc3c(C(=O)NCCN(C)C)cccc3cc12`: the GI50 in the test with 786-0 was 1.16 µM (inactive); with HCC 2998, 3.44 µM (inactive); in the test on HCT-116, 1.34 µM (inactive); in the test on HOP-92, 1.21 µM (inactive); in the test on Hs-578T, 1.82 µM (inactive); in the test with MCF7, 1.12 µM (active). For the same molecule, the GI50 was 2.69 µM (inactive) with MDA-MB-435; 2.18 µM (inactive) with MDA-N; 0.325 µM (active) in the test with MOLT-4; 1.4 µM (inactive) in the test with NCI-H226; 1.94 µM (inactive) in the test on OVCAR-5; 1.26 µM (inactive) with OVCAR-8. The GI50 in the test with RXF 393 is 3.94 µM (inactive); with SF-539, 1.85 µM (inactive); in the test on SN12C it was 1.16 µM (inactive); in the test on SNB-19, 2.35 µM (inactive); with TK-10, 2.57 µM (inactive); in the test on U-251, 1.44 µM (inactive). The GI50 in the test with UACC-62 was 2.23 µM (inactive).

With `C[C@@H]1C[C@H]2[C@@H]3CCC4=CC(=O)C=C[C@]4(C)[C@@]3(Cl)[C@@H](Cl)C[C@]2(C)[C@@]1(O)C(=O)COP(=O)(O)O`, the GI50 with 786-0 was 49.3 µM (inactive); with HCC 2998, > 100 µM (inactive); with HCT-116, 89.3 µM (inactive); with HOP-92 it was > 100 µM (inactive); in the test with Hs-578T it was > 100 µM (inactive); with MCF7, > 100 µM (inactive). The GI50 is > 100 µM (inactive) in the test on MDA-MB-435; 56.2 µM (inactive) with MDA-N; 22 µM (inactive) in the test on MOLT-4; > 100 µM (inactive) in the test with NCI-H226; > 100 µM (inactive) in the test with OVCAR-5; > 100 µM (inactive) with OVCAR-8. In addition, the GI50 in the test with RXF 393 was > 100 µM (inactive); with SN12C, 17.6 µM (inactive); in the test on SNB-19, > 100 µM (inactive); in the test on TK-10 it was > 100 µM (inactive); in the test on U-251, > 100 µM (inactive); in the test with UACC-62, > 100 µM (inactive).

In the case of `CC(C)C12CCC3(CCC4C(C)(C(=O)O)CCCC4(C)C3C1)C(CN)C2` (stereo not drawn), the GI50 in the test with 786-0 is 20.2 µM (inactive); in the test on HCC 2998, 18.4 µM (inactive); in the test with HCT-116, 17.3 µM (inactive); with HOP-92 it was 55.6 µM (inactive); in the test on Hs-578T it was 62.8 µM (inactive); with MCF7, 29.5 µM (inactive). Also, the GI50 with MDA-MB-435 was 37.7 µM (inactive); in the test with MDA-N it was 28.4 µM (inactive); in the test on NCI-H226, 34.2 µM (inactive); in the test on OVCAR-5, 42.3 µM (inactive); in the test on OVCAR-8, 30.7 µM (inactive); in the test on RXF 393, 35.2 µM (inactive). For the same molecule, the GI50 is 28.2 µM (inactive) in the test on SF-539; 20.8 µM (inactive) with SN12C; 39 µM (inactive) with SNB-19; 37.7 µM (inactive) in the test on TK-10; 31.4 µM (inactive) in the test on U-251; 32.4 µM (inactive) in the test with UACC-62.

Consider `O=C(NC12CC3CC(CC(C3)C1)C2)n1cnc2c(Cl)ncnc21`, for which the GI50 in the test on 786-0 is > 100 µM (inactive); with HCC 2998, 19.1 µM (inactive); in the test with HCT-116, 37.8 µM (inactive); in the test on HL-60 it was 3.28 µM (inactive); in the test with HOP-92, 34.2 µM (inactive); in the test with Hs-578T it was 32.3 µM (inactive). Besides, the GI50 was > 100 µM (inactive) with MCF7; 19.1 µM (inactive) in the test on MDA-MB-435; 21.6 µM (inactive) with MDA-N; 15 µM (inactive) in the test with MOLT-4; > 100 µM (inactive) with OVCAR-5; 26 µM (inactive) in the test with OVCAR-8. Also, the GI50 is 35.2 µM (inactive) with RXF 393; 42.6 µM (inactive) in the test with SF-539; > 100 µM (inactive) with SN12C; > 100 µM (inactive) in the test with SNB-19; > 100 µM (inactive) in the test with TK-10; 27.2 µM (inactive) in the test with U-251. In addition, the GI50 in the test with UACC-62 was 81.1 µM (inactive).

Turning to `CC(C)(C)C1=C(Br)C(O)(C(C)(C)C)OP1(=O)c1ccccc1` (stereo not drawn), the GI50 with 786-0 is > 100 µM (inactive); in the test on HCC 2998 it was > 100 µM (inactive); in the test on HL-60, > 100 µM (inactive); in the test on HOP-92 it was > 100 µM (inactive); in the test with Hs-578T it was > 100 µM (inactive); in the test on MCF7 it was 0.805 µM (active). Further, the GI50 in the test on MDA-MB-435, with MDA-N, in the test on MOLT-4, in the test on OVCAR-5, in the test with OVCAR-8 and in the test on RXF 393 was > 100 µM (inactive) each time. Besides, the GI50 with SF-539, in the test with SN12C, in the test on SNB-19, in the test with TK-10, with U-251 and in the test on UACC-62 was > 100 µM (inactive) in each case.

Consider `C=C1CC(COc2ccc3c(C)cc(=O)oc3c2)(c2ccccc2)OC1=O` (stereo not drawn), for which the GI50 in the test on 786-0 was 1.48 µM (inactive); in the test on HCC 2998, 5.18 µM (inactive); in the test with HCT-116, 1.27 µM (inactive); in the test with HL-60, 0.263 µM (active); in the test on HOP-92, 0.394 µM (active); in the test on Hs-578T, 6.82 µM (inactive). Further, the GI50 with MCF7 was 1.13 µM (inactive); in the test on MDA-MB-435, 2.43 µM (inactive); in the test with MDA-N, 1.95 µM (inactive); in the test on MOLT-4 it was 1.68 µM (inactive); in the test with NCI-H226, 6.11 µM (inactive); with OVCAR-5, 12.1 µM (inactive). Besides, the GI50 with OVCAR-8 is 2.26 µM (inactive); with SF-539, 2.45 µM (inactive); with SN12C it was 5.27 µM (inactive); in the test with SNB-19, 15.2 µM (inactive); in the test with TK-10, 1.62 µM (inactive); with U-251 it was 10.4 µM (inactive). In addition, the GI50 in the test with UACC-62 was 1.61 µM (inactive).
